# Laboratory results as given in the supplement of paper PMC10307832.
# Experiments:
# Test in all cases: relative viability (nuclei count vs DMSO), 5 days (fraction); higher = more cells survive
# Imatinib = compound: Cc1ccc(NC(=O)c2ccc(CN3CCN(C)CC3)cc2)cc1Nc1nccc(-c2cccnc2)n1 [Imatinib]
# Procedure, shortened: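 MetaXpress counted nuclei in 4× images of lung cancer cell lines that had been fixed, permeabilised and Hoechst-stained in one step. Before that, cells in 1536-well plates were kept overnight at 37 °C, pinned with five √10-spaced library-drug doses on vehicle-anchored plates, and cultured 5 days without medium change. Viability takes treated-well nuclei over vehicle-well nuclei and uses the median across plates. Plates were accepted only at control CV below 25% and at least one doubling.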
# Imatinib + Bortezomib = compound: Cc1ccc(NC(=O)c2ccc(CN3CCN(C)CC3)cc2)cc1Nc1nccc(-c2cccnc2)n1 [Imatinib] + CC(C)C[C@H](NC(=O)[C@H](Cc1ccccc1)NC(=O)c1cnccn1)B(O)O [Bortezomib] (partner 0.002 µM)
# Procedure, shortened: (§1)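 Relative viability is defined as nuclei in treated wells over nuclei in vehicle wells. Duplicate plates were run and medians reported. Lung cancer cell lines in 1536-well plates were dosed by pin tool one day after seeding, with one drug or with a fixed anchor-drug dose plus five library-drug doses (not always all listed) in √10 steps, and nuclei were counted after 5 days.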
# Imatinib + Luminespib = compound: Cc1ccc(NC(=O)c2ccc(CN3CCN(C)CC3)cc2)cc1Nc1nccc(-c2cccnc2)n1 [Imatinib] + CCNC(=O)c1noc(-c2cc(C(C)C)c(O)cc2O)c1-c1ccc(CN2CCOCC2)cc1 [Luminespib] (partner 0.01 µM)
# Procedure, shortened: as §1
# Imatinib + Pemetrexed = compound: Cc1ccc(NC(=O)c2ccc(CN3CCN(C)CC3)cc2)cc1Nc1nccc(-c2cccnc2)n1 [Imatinib] + Nc1nc2[nH]cc(CCc3ccc(C(=O)N[C@@H](CCC(=O)O)C(=O)O)cc3)c2c(=O)[nH]1 [Pemetrexed] (partner 0.2 µM)
# Procedure, shortened: as §1
Cell Line,relative viability (Imatinib; 0.02 µM),relative viability (Imatinib; 0.06325 µM),relative viability (Imatinib; 0.2 µM),relative viability (Imatinib; 0.6325 µM),relative viability (Imatinib; 2 µM),relative viability (Imatinib + Bortezomib; first compound 0.02 µM),relative viability (Imatinib + Bortezomib; first compound 0.2 µM),relative viability (Imatinib + Bortezomib; first compound 0.6325 µM),relative viability (Imatinib + Bortezomib; first compound 2 µM),relative viability (Imatinib + Luminespib; first compound 0.02 µM),relative viability (Imatinib + Luminespib; first compound 0.06325 µM),relative viability (Imatinib + Luminespib; first compound 0.6325 µM),relative viability (Imatinib + Luminespib; first compound 2 µM),relative viability (Imatinib + Pemetrexed; first compound 0.02 µM),relative viability (Imatinib + Pemetrexed; first compound 0.06325 µM),relative viability (Imatinib + Pemetrexed; first compound 0.2 µM),relative viability (Imatinib + Pemetrexed; first compound 0.6325 µM),relative viability (Imatinib + Pemetrexed; first compound 2 µM),relative viability (Imatinib + Bortezomib; first compound 0.06325 µM),relative viability (Imatinib + Luminespib; first compound 0.2 µM)
H3255,1.05,0.749,0.893,1.06,0.899,0.796,0.729,0.699,0.7,0.922,0.415,0.865,0.777,0.536,0.499,0.554,0.565,0.573,,
NCI-H441,1.06,0.969,1.2,0.885,,1.12,0.543,0.439,0.435,0.37,0.326,0.304,0.309,0.278,0.262,0.27,0.265,0.24,0.616,0.448
NCI-H2405,,0.721,1.02,0.927,1,,0.92,1.01,0.983,0.682,,0.58,0.76,1.15,1.12,1.13,1.02,,0.857,0.575
LOU-NH91,0.968,1.09,0.966,0.964,0.874,0.557,0.51,0.423,0.479,0.319,0.35,0.347,0.303,0.361,0.385,0.381,0.405,0.395,0.517,0.361
HCC-44,0.998,0.945,1.12,,0.893,1.04,0.979,0.896,0.813,1.24,0.552,0.959,,0.653,,0.68,0.671,0.544,0.945,
NCI-H520,1.11,1.15,0.907,0.882,0.938,0.781,0.476,0.558,0.512,0.21,0.236,0.189,0.198,0.556,0.768,0.709,0.716,0.733,0.639,0.23
NCI-H1437,1.11,,1.12,1.04,0.957,0.697,0.541,0.432,0.547,1.25,1.18,1.22,1.08,0.318,0.354,0.374,0.33,0.279,0.528,1.28
COR-L23,1.08,0.916,1.14,1.02,1.1,1.38,1.2,1.18,0.947,0.806,0.709,0.802,0.654,0.196,0.206,0.209,0.196,0.159,1.03,0.79
ChaGo-K-1,1.02,0.794,1.01,,0.949,0.975,1.01,1.15,,0.585,0.592,0.624,0.56,0.263,,0.255,0.268,0.251,1.37,0.603
NCI-H1975,1.04,0.951,0.94,0.964,0.94,0.484,0.338,0.304,0.356,0.254,0.191,0.178,0.274,0.308,0.299,0.299,0.309,0.284,0.437,0.201
NCI-H1651,1.1,0.876,1.03,0.967,0.948,1.03,0.964,0.955,0.893,0.926,0.829,0.749,0.83,0.617,0.339,0.586,0.58,0.555,0.83,0.947
NCI-H23,1.06,0.994,1.07,0.967,0.926,1.29,1.13,1.03,,0.248,0.225,0.185,0.189,0.692,0.69,,,0.571,0.95,0.221
LCLC-97TM1,1.08,,1.01,1,1.03,0.552,,0.741,0.524,0.89,,0.889,0.813,0.183,,0.197,0.165,0.184,,0.864
HCC-15,1.03,,1.1,1.1,,1.03,1.07,1.13,1.02,0.311,,0.33,0.297,0.225,0.234,0.236,0.218,0.211,0.93,0.358
PC-3 [JPC-3],1.07,,1.09,1.11,0.972,0.887,0.832,0.864,0.711,0.764,,0.704,0.734,1.28,,,1.16,1.07,,0.705
LU99A,1.03,1.05,0.977,0.964,1.17,1.34,1.08,1.23,1.03,0.276,0.247,0.219,0.245,0.161,0.206,0.157,0.232,0.313,1.19,0.227
